From ChEMBL document CHEMBL1201862, “PubChem BioAssay data set” (2004)
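1) Cells in 96-well plates. 2) Compound, 48 h, 5 concentrations. 3) Linear interpolation between surrounding doses. 4) Unreached endpoint = highest concentration. GI50 = concentration required for 50% inhibition of growth.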 Calls of active or inactive are those of the source. No stated cut-off is given here; in the data, active = GI50 up to about 1.1 µM and inactive = higher.

Tests used:
Test in all cases: NCI anticancer screen, dose series, 48 h
[1] = test system: HOP-62
[2] = test system: HL-60
[3] = test system: CCRF-CEM
[4] = test system: NCI-H226
[5] = test system: SN12C
[6] = test system: DMS-114
[7] = test system: LOX IMVI
[8] = test system: NCI-H23
[9] = test system: NCI-H522
[10] = test system: UO-31
[11] = test system: OVCAR-4
[12] = test system: CAKI-1
[13] = test system: UACC-62
[14] = test system: UACC-257
[15] = test system: SK-OV-3
[16] = test system: DLD-1
[17] = test system: OVCAR-5
[18] = test system: HOP-18
[19] = test system: U-251
[20] = test system: EKVX
[21] = test system: HOP-92
[22] = test system: MOLT-4
[23] = test system: HCC 2998
[24] = test system: SR
[25] = test system: SNB-78
[26] = test system: LXFL 529
[27] = test system: SF-539
[28] = test system: K562
[29] = test system: SK-MEL-5
[30] = test system: OVCAR-8
[31] = test system: KM12
[32] = test system: M19-MEL
[33] = test system: A549
[34] = test system: DMS-273
[35] = test system: TK-10
[36] = test system: ACHN
[37] = test system: SK-MEL-2
[38] = test system: OVCAR-3
[39] = test system: HT-29
[40] = test system: 786-0
[41] = test system: SNB-19
[42] = test system: SF-295
[43] = test system: IGROV-1
[44] = test system: RPMI-8226
[45] = test system: RXF 631
[46] = test system: SK-MEL-28
[47] = test system: KM-20L2
[48] = test system: COLO 205
[49] = test system: NCI-H460
[50] = test system: RXF 393
[51] = test system: HCT-116
[52] = test system: HCT-15
[53] = test system: SW-620
[54] = test system: SNB-75
[55] = test system: Malme-3M
[56] = test system: XF498
[57] = test system: M14
[58] = test system: A498
[59] = test system: SF-268

Measured: GI50

NC1=NC(=O)/C(=C/c2ccccc2[N+](=O)[O-])C(N)=N1
> 100 µM: [52]
inactive: [1] > 100 µM | [2] > 100 µM | [3] > 100 µM | [4] > 100 µM | [5] > 100 µM | [6] > 100 µM | [7] > 100 µM | [8] > 100 µM | [9] > 100 µM | [10] > 100 µM | [11] > 100 µM | [12] > 100 µM | [13] > 100 µM | [14] > 100 µM | [15] > 100 µM | [16] > 100 µM | [17] > 100 µM | [18] > 100 µM | [19] > 100 µM | [20] > 100 µM | [21] > 100 µM | [22] > 100 µM | [23] > 100 µM | [24] > 100 µM | [25] > 100 µM | [26] > 100 µM | [27] > 100 µM | [28] > 100 µM | [29] > 100 µM | [30] > 100 µM | [31] > 100 µM | [32] > 100 µM | [33] > 100 µM | [34] > 100 µM | [35] > 100 µM | [36] > 100 µM | [37] > 100 µM | [38] > 100 µM | [39] > 100 µM | [40] > 100 µM | [41] > 100 µM | [42] > 100 µM | [43] > 100 µM | [44] > 100 µM | [45] > 100 µM | [46] > 100 µM | [47] > 100 µM | [48] > 100 µM | [49] > 100 µM | [50] > 100 µM | [51] > 100 µM | [53] > 100 µM | [54] > 100 µM | [55] > 100 µM | [56] > 100 µM | [57] > 100 µM

O=C(NN1C(=O)CSC1c1ccc(Cl)c(Cl)c1)c1ccncc1 (configuration not stated)
active: [18] < 0.01 µM
inactive: [2] 37.8 µM | [58] 29.9 µM | [3] 77.3 µM | [5] 75.9 µM | [6] 30.6 µM | [7] 66.4 µM | [8] 84.7 µM | [9] 72.8 µM | [10] 85.1 µM | [11] 54.1 µM | [12] > 100 µM | [13] 31.8 µM | [14] 54.2 µM | [15] > 100 µM | [16] 38.6 µM | [17] > 100 µM | [19] > 100 µM | [20] > 100 µM | [22] 67.8 µM | [23] 46.2 µM | [25] 64.6 µM | [26] 71.6 µM | [27] > 100 µM | [28] 37.8 µM | [29] 46.9 µM | [30] 86.7 µM | [31] 38.1 µM | [33] 58.1 µM | [34] 64.3 µM | [35] 57.7 µM | [36] 38.4 µM | [37] 83.8 µM | [39] 60.1 µM | [41] > 100 µM | [42] 54.3 µM | [43] 34.4 µM | [44] 42.9 µM | [45] 94.4 µM | [46] > 100 µM | [47] 74.6 µM | [59] 78.3 µM | [48] > 100 µM | [50] 58.3 µM | [53] > 100 µM | [54] > 100 µM | [55] 87.7 µM | [56] 48 µM | [57] 44.5 µM
72.6 µM: [52]
